Reference: patent US20130245126A1, “GERANYLGERANYLACETONE FORMULATIONS AND RETINAL DELIVERY THEREOF” (COYOTE PHARMACEUTICALS, INC., priority 2012, published 2013)
Several values for one entry are separate records, joined by “and”; a condition that tells them apart may be missing. Equal entries are not always repeated. Where two headings read alike, the source gives them in different places.

Assays:
[1] = Rat ocular pharmacokinetics: GGA concentration in eye balls after topical eye drops (LC-MS/MS); assay type: in vivo; details: for Mean of Duplicate / R/L: per rat; for Concentration: single determination; for R/L: ratio of right to left eye concentration
Description: (§1) In Cohort 2 the efficacy of Formulation 102 was tested against Formulation 101 and vehicle controls at different time points.
(§2) • Route: topical eye drop formulation • Frequency: 4 or 8 doses, every 1 hour • Dose Administration : under isofluorane anesthesia (2.5%) • Dose Volume: 5 μL in each eye
(§3) • Species: Rat • Strain: Sprague-Dawley • Supplier: Harlan • Sex: Male • Weight at Initiation: 200 to 220 g • Number of Animals: 12 for Cohort 1, 26 for Cohort 2
Eye drops were applied every hour either for 4 hours or for 8 hours. Animals were euthanized 4 hours and 8 hours after the first dosing, and the eye balls collected on dry ice. Eyes were homogenized with a polytron homogenizer in ethanol. GGA was quantified in the eye ball lysates by liquid chromatography-tandem mass spectroscopy.

HSP70 [2] = assay: HSP70 analysis by ELISA in rat eyes after eye drops (Example 17, Cohort 2); assay type: in vivo; details: for Ratio: compound treated/vehicle treated, Average (AVE): HSP70, average of 4 rats; for Left (compound treated) AVE: HSP70, average of the left-eye values of Table 3 (pg/ml there); for Ratio treated eye/vehicle treated eye: HSP70, individual rat, left (compound) vs right (vehicle) eye; for HSP70: individual rat, compound-treated left eye, 5% eye drop 0.25 mg/eye per dose hourly, harvest time not stated
Description: as §1
Cohort 2: HSP70 analysis for ELISA only
as §2, §3

HSP70 [3] = assay: HSP70 induction in eye balls by eye drops, ELISA normalized by total protein (Example 18); assay type: in vivo, Rat
Description: Eye drops were applied every hour either for 4 hours or for 8 hours. Animals were euthanized 4 hours, 8 hours or 24 hours after the first dosing, and the eye balls collected on ice. Eyes were homogenized with a polytron homogenizer in a standard lysis buffer containing proteinase inhibitors. HSP70 was quantified by a commercially available ELISA kit and normalized by total protein concentration in the sample.

[4] = Ocular, retinal delivery of GGA by eye drop compared to systemic (PO) delivery, AUC (Example 21); assay type: in vivo; details: for Kp(eye ball) / Kp(retina): 180 mg/kg PO
[5] = Intraocular GGA levels, topical ocular 5% GGA versus 200 mg/kg oral; assay type: in vivo; details: topical ocular composition of 5% GGA vs 200 mg/kg GGA orally
Source text: The level achieved thereby into the ocular tissue was many-folds more, for example, about 5 times more than that achieved by systemic delivery by oral administration. […] Such is even more unexpected in view of the eye being a immunprotected organ which is predisposed to impede compounds from getting into the ocular tissue and to remove any compound entered into it.

[6] = contralateral eye, 8 doses, group average of Table 7 means (ng/g there), in ng/g
[7] = left (treated) eye, 4 doses, harvest 4 h
[8] = left (treated) eye, 8 doses, harvest 8 h
[9] = left (treated) eye, 4 hourly doses 0.25 mg/eye, harvest 4 h
[10] = left (treated) eye, 8 hourly doses 0.25 mg/eye, harvest 8 h
[11] = right (contralateral) eye, 4 doses, harvest 4 h
[12] = right (contralateral) eye, 8 doses, harvest 8 h
[13] = treated eye, 8 doses, group average of Table 7 means (ng/g there), in ng/g

contra/ipsi AVE ([1]; 4 doses, 4 h)	contra/ipsi AVE ([1]; 8 doses, 8 h)	8 h contra AVE [1, 6]	Mean of Duplicate [1, 7]	R/L ([1]; 4 doses, 4 h)	R/L ([1]; 8 doses, 8 h)	8 h ispi AVE [1, 13]	Kp(eye ball) [4]	Kp(retina) [4]	SMILES	Mean of Duplicate [1, 8]	Concentration [1, 9]	Concentration [1, 10]	Mean of Duplicate [1, 11]	Mean of Duplicate [1, 12]	Ratio: compound treated/vehicle treated, Average (AVE) (HSP70 [2])	Left (compound treated) AVE (HSP70 [2])	Ratio treated eye/vehicle treated eye (HSP70 [2])	HSP70 (HSP70 [2])	also measured
0.349	0.1718	2986.667	14722 ng/g and 15163 ng/g and 19992 ng/g	0.4357 and 0.2213 and 0.3901	0.1996 and 0.1209 and 0.1949	16846.83	0.71	2.21	CC(=O)CCC=C(C)CC/C=C(\C)CC/C=C(\C)CCC=C(C)C (mixture of isomers) [CNS-101, cis-trans geranylgeranyl acetone]	18546 ng/g and 13199 ng/g and 18795.5 ng/g	14635 ng/g and 14809 ng/g and 15206 ng/g and 15120 ng/g and 19608 ng/g and 20376 ng/g	18947 ng/g and 18145 ng/g and 12879 ng/g and 13519 ng/g and 18953 ng/g and 18638 ng/g	6414.5 ng/g and 3355 ng/g and 7799.5 ng/g	3701 ng/g and 1596 ng/g and 3663 ng/g	1.665	952.4506	1.003 and 2.135 and 1.544 and 1.976	589.4561 pg/mL and 1023.901 pg/mL and 1211.234 pg/mL and 985.2114 pg/mL	4 h contra AVE ([1]; contralateral eye, 4 doses, group average of Table 7 means (ng/g there), in ng/g): 5856.333; concentration at 4 h ([1]; male, Sprague-Dawley, rat, eye balls, topical, CNS-101 concentrations in eye balls, mean ± SD, 4 × 5 ml 5% CNS-101, measured after 4 hrs): 16600 ng/g; concentration at 8 h ([1]; male, Sprague-Dawley, rat, eye balls, topical, CNS-101 concentrations in eye balls, mean ± SD, 8 × 5 ml 5% CNS-101, measured after 8 hrs): 16800 ng/g; 4 h ispi AVE ([1]; treated eye, 4 doses, group average of Table 7 means (ng/g there), in ng/g): 16625.67; HSP70 expression in eye balls, mean ± SD (HSP70 [3]; topical ocular 5% CNS-101, 4 hours): 50.7 ± 8.01 pg/mg protein; HSP70 expression in eye balls, mean ± SD (HSP70 [3]; topical ocular 5% CNS-101, 8 hours): 55.9 ± 11.2 pg/mg protein; HSP70 expression in eye balls, mean ± SD (HSP70 [3]; topical ocular 5% CNS-101, 24 hours): 50.5 ± 10.8 pg/mg protein
–	–	–	–	–	–	–	–	–	CC(=O)CCC=C(C)CC/C=C(\C)CC/C=C(\C)CCC=C(C)C (mixture of isomers) [GGA, Geranylgeranyl acetone]	–	–	–	–	–	–	–	–	–	delivery into the retina and the eyeball ([4]; eye drop): effective delivery; levels of geranylgeranyl acetone achieved intraocularly, topical vs oral [5]: about 5 fold
0.3052	0.2617	2105	30309 ng/g and 21828 ng/g and 17344 ng/g	0.3848 and 0.2037 and 0.327	0.1144 and 0.2267 and 0.444	8769.833	0.19	0.79	CC(=O)CC/C=C(\C)CC/C=C(\C)CC/C=C(\C)CCC=C(C)C [CNS-102, (5E, 9E, 13E) geranylgeranyl acetone]	10746 ng/g and 8395 ng/g and 7168.5 ng/g	32854 ng/g and 27764 ng/g and 21506 ng/g and 22150 ng/g and 17494 ng/g and 17194 ng/g	12094 ng/g and 9398 ng/g and 8505 ng/g and 8285 ng/g and 7547 ng/g and 6790 ng/g	4447 ng/g and 5672 ng/g and 11663.5 ng/g	1229 ng/g and 1903.5 ng/g and 3182.5 ng/g	1.089	681.9337	0.5953 and 1.239 and 1.26 and 1.263	685.1953 pg/mL and 757.1621 pg/mL and 583.588 pg/mL and 701.7893 pg/mL	concentration at 4 h ([1]; male, Sprague-Dawley, rat, eye ball (contralateral eye), topical, 0.25 mg/eye, contralateral eye, 4 doses, group average of Table 7 means (ng/g there), read-out: 4 h contra AVE): 7260 ng/g; concentration at 4 h ([1]; male, Sprague-Dawley, rat, eye ball (treated, ipsilateral eye), topical, 0.25 mg/eye, treated eye, 4 doses, group average of Table 7 means (ng/g there), read-out: 4 h ispi AVE): 23200 ng/g
